Measurements as given in patent publication US10584115B2, “Substituted pyridine and pyrazine BMI-1 inhibitors” (PTC Therapeutics, Inc., priority 2013, dated 2020).
Counter-ions that a name gives are not always drawn.

Each compound was assayed on Bmi-1 protein (assay: Sandwich ELISA Assay (Bmi-1 protein level in HT-1080 cells after compound treatment)). Conditions: Table 1, Bmi-1 sandwich ELISA, read-out: ELISA EC50 value for Bmi-1 protein.
Format: cell-based
Experimental: Cell Seeding and Compound Treatment (Day 1):
HT-1080 cells were seeded at 8000 cells/well (50 μL) in 96-well tissue culture plates. After the cells became adherent (3-4 hours), 2× diluted stocks of test compounds in 50 μL DMEM containing 1% DMSO (final DMSO concentration was 0.5%) were added and the plates were incubated at 37° C. under 5% CO2 for 40-48 hours.
ELISA Plate First Antibody Preparation (Day 2):
The First Antibody (Millipore Mouse, monoclonal to mouse Bmi-1, clone F6, catalog #05-637) diluted to […] in PBS was added (100 μL) to each well of a Nunc MaxiSorp 96-well ELISA plate. The plate was covered with a plate seal and allowed to stand overnight.
Cell Lysate Preparation (Day 3):
Fresh Lysis buffer (1×) was prepared on the day of the assay as follows: 1 mM EDTA, 150 mM NaCl, 0.5% Triton-X 100, 10 mM NaF, 20 mM B-Glycerophosphate, 1 mM DTT (in PBS, pH 7.2-7.4) and HALT protease inhibitor cocktail (lx) (Pierce #78410).
A standard curve was prepared at the following Bmi-1 concentrations: 8000, 4000, 2000, 1000, 500, 250, 125 and 0 pg/mL. The Bmi-1 Recombinant Protein Standard (Novus Biologicals PCGF4 Recombinant Protein (P01), catalog # H00000648-P01) used to prepare the standard curve was stored at −80° C. On first thaw, the Recombinant Protein Standard was diluted to 10 μg/L in Blocking Buffer (1% BSA in PBS; BSA: Fisher Scientific Catalog #1600-100). Aliquots were taken and refrozen at −80° C. The aliquots may be kept at 4° C. and reused after first thaw, but only within 1-2 weeks. The Recombinant Protein Standard contains a GST-fusion tag that appears at approximately 70 Kda on Western Blot.
The prepared ELISA plate was washed 3× with Wash Buffer (0.05% Tween-20 in PBS). The final wash was removed from the plate and the plate was blotted dry. Blocking Buffer (300 μL) (1% BSA in PBS) was added to each well. The plate was covered with a plate seal and incubated at room temperature for 1 hour. The blocked plate was washed 3× with Wash Buffer, then the final wash was removed and the plate was blotted dry. The previously prepared samples and standards were added ([…]) and the plate was covered with a plate seal and incubated at 4° C. overnight.
The prepared ELISA plate was removed from incubation and allowed to stand at room temperature for 30 minutes, then washed and blotted dry. The Second Antibody (Cell Signaling Rabbit anti-Bmi-1, Cat #2830) diluted to 1:600 in Blocking Buffer was added (100 μL) to each well, except as needed for background control wells. The plate was covered with a plate seal and incubated for 1.5 hrs at room temperature.
The ELISA plate was washed and blotted dry as previously described. The Third Antibody (Cell Signaling HRP conjugated anti-rabbit IgG (CellSignaling, Cat #:7074) diluted to 1:300 in Blocking Buffer was added (100 μL) to each well, except as needed for background control wells. The plate was incubated for 1 hr at room temperature.
The plate was washed and blotted dry, then a previously prepared TMB substrate (TMB substrate kit, Pierce catalog #34021) (prepared by mixing kit reagents 1:1) (100 μL) was added per well. The plate was incubated for 20-30 minutes at room temperature in the dark, then Stop Solution (2 M sulfuric acid in water) (50 μL) was added per well. The plates were read at OD450 (experimental) and OD570 (reference).
`Cc1nc2ccccc2n1-c1cncc(Nc2ccc(CN)cc2)n1` [154a, N-[4-(aminomethyl)phenyl]-6-(2-methyl-1H-benzimidazol-1-yl)pyrazin-2-amine trifluoroacetate] was tested, and the EC50 was 10 to 100 nM. Compound `Nc1cc(Nc2ccc(C(F)(F)F)cc2)nc(-c2c(CO)nc3ccccn23)c1` [289a, [3-(4-amino-6-{[4-(trifluoromethyl)phenyl]amino}pyridin-2-yl)imidazo[1,2-a]pyridin-2-yl)methanol hydrochloride (1:2)] has an EC50 of 10 to 100 nM. Work on `COc1ccc(Nc2cccc(-c3c(C(F)(F)F)nc4ccccn34)n2)cc1Cl` [Cpd 3, N-(3-chloro-4-methoxyphenyl)-6-[2-(trifluoromethyl)imidazo[1,2-a]pyridin-3-yl]pyridin-2-amine] yielded an EC50 of 1 to 10 nM. `COc1ccc(Nc2cccc(-c3c(C(F)(F)F)nc4ccccn34)n2)cc1` [Cpd 4, N-(4-methoxyphenyl)-6-[2-(trifluoromethyl)imidazo[1,2-a]pyridin-3-yl]pyridin-2-amine] was tested, and the EC50 was 1 to 10 nM. With `FC(F)(F)c1ccc(Nc2cncc(-c3c(C(F)(F)F)nc4ccccn34)n2)cc1` [Cpd 6, 6-[2-(trifluoromethyl)imidazo[1,2-a]pyridin-3-yl]-N-[4-(trifluoromethyl)phenyl]pyrazin-2-amine] the EC50 was 1 to 10 nM. `COc1ccc(Nc2cncc(-c3c(C(F)(F)F)nc4ccccn34)n2)cc1F` [Cpd 7, N-(3-fluoro-4-methoxyphenyl)-6-[2-(trifluoromethyl)imidazo[1,2-a]pyridin-3-yl]pyrazin-2-amine] showed an EC50 of under 1 nM. `COc1ccc(Nc2cccc(-c3c(C(F)(F)F)nc4ccccn34)n2)cc1F` [Cpd 8, N-(3-fluoro-4-methoxyphenyl)-6-[2-(trifluoromethyl)imidazo[1,2-a]pyridin-3-yl]pyridin-2-amine] gave an EC50 of 1 to 10 nM. For `Fc1ccc(Nc2cncc(-c3c(C(F)(F)F)nc4ccccn34)n2)cc1` [Cpd 9, N-(4-fluorophenyl)-6-[2-(trifluoromethyl)imidazo[1,2-a]pyridin-3-yl]pyrazin-2-amine], the EC50 was 100 to 3000 nM. For `FC(F)(F)c1nc2ccccn2c1-c1cncc(Nc2ccc(Cl)cc2)n1` [Cpd 10, N-(4-chlorophenyl)-6-[2-(trifluoromethyl)imidazo[1,2-a]pyridin-3-yl]pyrazin-2-amine], the EC50 was 1 to 10 nM. `FC(F)(F)Oc1ccc(Nc2cncc(-c3c(C(F)(F)F)nc4ccccn34)n2)cc1` [Cpd 11, N-[4-(trifluoromethoxy)phenyl]-6-[2-(trifluoromethyl)imidazo[1,2-a]pyridin-3-yl]pyrazin-2-amine] showed an EC50 of 10 to 100 nM. With `FC(F)(F)Oc1ccc(Nc2cccc(-c3c(C(F)(F)F)nc4ccccn34)n2)cc1` [Cpd 16, N-[4-(trifluoromethoxy)phenyl]-6-[2-(trifluoromethyl)imidazo[1,2-a]pyridin-3-yl]pyridin-2-amine] the EC50 was 10 to 100 nM. In the case of `FC(F)(F)c1nc2ccccn2c1-c1cccc(Nc2ccc(Cl)cc2)n1` [Cpd 17, N-(4-chlorophenyl)-6-[2-(trifluoromethyl)imidazo[1,2-a]pyridin-3-yl]pyridin-2-amine], the EC50 is reported as 1 to 10 nM. `COc1ccc(Nc2cncc(-c3c(C(F)(F)F)nc4ccccn34)n2)cc1Cl` [Cpd 22, N-(3-chloro-4-methoxyphenyl)-6-[2-(trifluoromethyl)imidazo[1,2-a]pyridin-3-yl]pyrazin-2-amine] gave an EC50 of 1 to 10 nM. Work on `N#Cc1ccc(Nc2cncc(-c3c(C(F)(F)F)nc4ccccn34)n2)cc1` [Cpd 23] yielded an EC50 of 10 to 100 nM. For `FC(F)Oc1ccc(Nc2cncc(-c3c(C(F)(F)F)nc4ccccn34)n2)cc1` [Cpd 24, N-[4-(difluoromethoxy)phenyl]-6-[2-(trifluoromethyl)imidazo[1,2-a]pyridin-3-yl]pyrazin-2-amine], the EC50 was under 1 nM. For `Fc1cc(Nc2cncc(-c3c(C(F)(F)F)nc4ccccn34)n2)ccc1Cl` [Cpd 25, N-(4-chloro-3-fluorophenyl)-6-[2-(trifluoromethyl)imidazo[1,2-a]pyridin-3-yl]pyrazin-2-amine], the EC50 was 1 to 10 nM. `Fc1ccc(Nc2cncc(-c3c(C(F)(F)F)nc4ccccn34)n2)cc1F` [Cpd 26, N-(3,4-difluorophenyl)-6-[2-(trifluoromethyl)imidazo[1,2-a]pyridin-3-yl]pyrazin-2-amine] was tested, and the EC50 was 100 to 3000 nM. `FC(F)Oc1ccc(Nc2cccc(-c3c(C(F)(F)F)nc4ccccn34)n2)cc1` [Cpd 27, N-[4-(difluoromethoxy)phenyl]-6-[2-(trifluoromethyl)imidazo[1,2-a]pyridin-3-yl]pyridin-2-amine] showed an EC50 of 1 to 10 nM. In the case of `FC(F)(F)c1nc2ccccn2c1-c1cncc(Nc2ccc(Cl)c(Cl)c2)n1` [Cpd 29, N-(3,4-dichlorophenyl)-6-[2-(trifluoromethyl)imidazo[1,2-a]pyridin-3-yl]pyrazin-2-amine], the EC50 is reported as 10 to 100 nM. `Fc1cc(Nc2cncc(-c3c(C(F)(F)F)nc4ccccn34)n2)ccc1Br` [Cpd 30, N-(4-bromo-3-fluorophenyl)-6-[2-(trifluoromethyl)imidazo[1,2-a]pyridin-3-yl]pyrazin-2-amine] was tested, and the EC50 was 1 to 10 nM. Compound `FC(F)(F)c1nc2ccccn2c1-c1cncc(Nc2ccc(Br)c(Cl)c2)n1` [Cpd 31, N-(4-bromo-3-chlorophenyl)-6-[2-(trifluoromethyl)imidazo[1,2-a]pyridin-3-yl]pyrazin-2-amine] has an EC50 of 10 to 100 nM. `Cc1nc2ccccc2n1-c1cccc(Nc2ccc(OC(F)F)cc2)n1` [Cpd 35, N-[4-(difluoromethoxy)phenyl]-6-(2-methyl-1H-benzimidazol-1-yl)pyridin-2-amine] showed an EC50 of 10 to 100 nM. Work on `Cc1nc2ccccc2n1-c1cccc(Nc2ccc(OC(F)(F)F)cc2)n1` [Cpd 36, 6-(2-methyl-1H-benzimidazol-1-yl)-N-[4-(trifluoromethoxy)phenyl]pyridin-2-amine] yielded an EC50 of 100 to 3000 nM. `Cc1nc2ccccc2n1-c1cccc(Nc2ccc(C(F)(F)F)cc2)n1` [Cpd 37, 6-(2-methyl-1H-benzimidazol-1-yl)-N-[4-(trifluoromethyl)phenyl]pyridin-2-amine] gave an EC50 of 10 to 100 nM. `FC(F)Oc1ccc(Nc2cccc(-n3c(C(F)(F)F)nc4ccccc43)n2)cc1` [Cpd 38, N-[4-(difluoromethoxy)phenyl]-6-[2-(trifluoromethyl)-1H-benzimidazol-1-yl]pyridin-2-amine] gave an EC50 of 10 to 100 nM. `FC(F)(F)Oc1ccc(Nc2cccc(-n3c(C(F)(F)F)nc4ccccc43)n2)cc1` [Cpd 39, N-[4-(trifluoromethoxy)phenyl]-6-[2-(trifluoromethyl)-1H-benzimidazol-1-yl]pyridin-2-amine] was tested, and the EC50 was 100 to 3000 nM.

Same assay, conditions: read-out: ELISA EC50 value for Bmi-1 protein, Table 1, Bmi-1 sandwich ELISA
In the case of `FC(F)(F)c1ccc(Nc2cccc(-c3c(C(F)(F)F)nc4ccccn34)n2)cc1` [Cpd 18, 6-[2-(trifluoromethyl)imidazo[1,2-a]pyridin-3-yl]-N-[4-(trifluoromethyl)phenyl]pyridin-2-amine], the EC50 is reported as 1 to 10 nM. With `COc1ccc(Nc2cccc(-n3c(C)nc4ccccc43)n2)cc1` [Cpd 32, N-(4-methoxyphenyl)-6-(2-methyl-1H-benzimidazol-1-yl)pyridin-2-amine] the EC50 was 1 to 10 nM. `COc1ccc(Nc2cccc(-n3c(C(F)(F)F)nc4ccccc43)n2)cc1` [Cpd 33, N-(4-methoxyphenyl)-6-[2-(trifluoromethyl)-1H-benzimidazol-1-yl]pyridin-2-amine] gave an EC50 of 10 to 100 nM. `COc1ccc(Nc2ccc(C#N)c(-c3c(C(F)(F)F)nc4ccccn34)n2)cc1` [Cpd 34, 6-[(4-methoxyphenyl)amino]-2-[2-(trifluoromethyl)imidazo[1,2-a]pyridin-3-yl]pyridine-3-carbonitrile] gave an EC50 of 100 to 3000 nM.
